Test results from patent US20180118721A1, “PYRIMIDINE DERIVATIVES” (Merck Patent GmbH, priority 2015, published 2018).
Where two headings read alike, the source gives them in different places.

Columns and labels:
[1] = biological target: T1, purified human recombinant MTH1 (human MTH1, residues 42-197) (Homo sapiens, UniProt P36639); test: MTH1 enzymatic assay (luminescence-based, PPiLight); assay type: biochemical; conditions: 6 μM 8-oxo-dGTP, Table 1, grouped
T1 construct: human MTH1, residues 42-197, Uniprot-ID: P36639, expressed in E. coli; made in house; host or cells: E. coli
Method: The IC50 value was determined by a MTH1 enzymatic assay. The assay comprises the principal steps of incubating a mixture of MTH1, the compound in question at different concentrations and 8-oxo-2′-deoxyguanosine-5′-triphosphate (8-oxo-dGTP) in assay buffer. Nucleotide triphosphate hydrolysis by MTH1, i.e. decomposition of 8-oxo-2′-deoxyguanosine-5′-triphosphate, produces 8-oxo-2′-deoxyguanosine-5′-monophosphate (8-oxo-dGMP) and pyrophosphate (PPi). The amount of generated pyrophosphate (PPi) is then measured by a bioluminescent reaction. In detail: The MTH1 (human mutT homologue 1) enzymatic assay is performed as a luminescence-based 384-well assay. […] The assay buffer contains 100 mM Tris-acetate pH 7.5, 40 mM NaCl, 10 mM Mg(OAc)2, 0.005% Tween 20 and 2 mM dithiothreitol (DTT). […] Then, in a second step, the substrate 8-oxo-dGTP is added and the reaction mixture is incubated for 30 minutes at 22° C. The pharmacologically relevant assay volume is 5 PI. The final concentrations in the assay during incubation of the reaction mixture are 0.1-0.2 nM, typically 0.1 nM, MTH1 and 6 μM 8-oxo-dGTP. After incubation of the reaction mixture, the generation of pyrophosphate (PPi) as a result of nucleotide triphosphate (8-oxo-dGTP) hydrolysis by MTH1 is detected using the PPiLight inorganic pyrophosphate assay kit (Lonza) (third step). 2 to 5 μl, such as 3 to 5 μl, typically 3 or 4 μl, for instance 4 μl, of a 1:1 mixture of PPiLight converting reagent (AMP) and PPiLight detection reagent are added to the reaction mixture. In the presence of pyrophosphate, the detection reagent catalyzes the conversion of AMP to ATP. Luciferase then produces light from the newly formed ATP and luciferin. The amount of light produced is directly proportional to the amount of PPi in the sample. Following signal development for 1 h the plates are analysed in an EnVision (PerkinElmer) microplate reader using the ultra sensitive luminescence option. Data are processed employing the Genedata Screener software. In particular, IC50 values are determined in the usual manner (using the Hill Equation) by fitting a dose-response curve to the data points using nonlinear regression analysis.
Hill Equation: Y=S0+(Sinf−S0)/(1+(10^logIC50/10^c)^n); Y: luminescence signal (response), S0: activity level at zero concentration of test compound, Sinf=activity level at infinite concentration, Hill coefficient n=measure of the slope at IC50, c=concentration in logarithmic units corresponding to the values on the x-axis of the dose response curve plot

[2] = biological target: T2, humanMTH1 (aminoacids 42 to 197) (Homo sapiens, UniProt P36639); test: Binding affinities and kinetics on MTH1 surfaces by surface plasmon resonance (SPR); conditions: for Kd: SPR, Biacore4000, 25° C., Table 1, grouped, read-out: KD IC50; for residence time: on MTH1, calculated on the basis of the KD values
T2 construct: humanMTH1 (aminoacids 42 to 197); His tag at the N-terminus; purchased Abnova ab99390; host or cells: E. coli
Method: The SPR experiments were performed using a Biacore4000 instrument. […] HumanMTH1 was immobilized on Biacore CM5 chips at 25° C. and a flow rate of 10 μL/min using amine coupling at pH 5.5 and in presence of 1 μM MSC2567771B-1 according to Biacore's standard protocol. MTH1 was applied at a concentration of 10 μg/mL and depending on the duration of the injection time immobilization levels between 500 and 2,000 RU were obtained. Sample compounds were applied in form of titration series with a doubling of concentration at each subsequent injection. In general, 10 concentrations were injected covering a dilution range of 500 fold. Before and after each of these titration series the binding capability of the surface was controlled by the injection of the positive control S-Crizotinib at a fixed concentration of 2 μM. Kinetic titration experiments were performed at 25° C. with a flow rate of 30 μL/min, a sample contact time of 90 sec and a dissociation time of 420 sec in running buffer (20 mM Tris-HCl (Tris(hydroxymethyl)-aminomethane HCl) pH 7.40, 150 mM NaCl, 5 mM MgCl2, 1 mM DTT (dithiothreitol), 0.1 mM EGTA (ethylene glycol tetraacetic acid), 0.05% Tween 20) containing 2% DMSO (dimethyl sulfoxide). Buffer injections identical to the sample injections were executed at the beginning of the successive series for the purpose of double referencing. Solvent correction cycles (eight correction points, 1.4%-2.8% DMSO) were run at the same intervals. For surface conditioning ten start-up cycles (buffer injections) were run. Data points were collected at a sample rate of 10 Hz.
Data sets were processed and analyzed using the software Biacore4000 Evaluation, version 1.0. Solvent corrected and double-referenced association and dissociation phase data were fitted to a simple 1:1 interaction model with mass transport limitations.
Measured values are indicated as KD IC50 in the Table below.

Compound	IC50 [1]	Kd [2]	residence time ([2]; read-out: Residence time)	residence time [2]
C[C@@]1(O)CCN(c2cc(NC3CC3)nc(N)n2)C1 [Example 52, (R)-1-(2-Amino-6-cyclopropylamino-pyrimidin-4-yl)-3-methyl-pyrrolidin-3-ol]	1 to 100 nM	1 to 100 nM	–	–
C[C@]1(O)CCN(c2cc(NC3CC3)nc(N)n2)C1 [Example 53, (S)-1-(2-Amino-6-cyclopropylamino-pyrimidin-4-yl)-3-methyl-pyrrolidin-3-ol]	1 to 100 nM	1 to 100 nM	–	–
CC1Cc2ccccc2N1c1cc(NC2CC2)nc(N)n1 (stereo not drawn) [Example 58, N4-Cyclopropyl-6-(2-methyl-2,3-dihydro-indol-1-yl)-pyrimidine-2,4-diamine]	1 to 100 nM	1 to 100 nM	–	–
CNc1cc(N2CC[C@H](O)C2)nc(N)n1 [Example 62, (S)-1-(2-Amino-6-methylamino-pyrimidin-4-yl)-pyrrolidin-3-ol]	1 to 100 nM	1 to 100 nM	–	–
Nc1nc2c(c(N3CCC(F)(F)C3)n1)CCCN2 [Example 63, 4-(3,3-Difluoro-pyrrolidin-1-yl)-5,6,7,8-tetrahydro-pyrido[2,3-d]pyrimidin-2-ylamine]	< 1 nM	1 to 100 nM	–	–
Nc1nc(NCC2CCCC2)cc(N2CCC(F)(F)C2)n1 [Example 76, N4-Cyclopentylmethyl-6-(3,3-difluoro-pyrrolidin-1-yl)-pyrimidine-2,4-diamine]	1 to 100 nM	1 to 100 nM	–	–
COc1ccccc1CCNc1cc(N2CCC(F)(F)C2)nc(N)n1 [Example 77, 6-(3,3-Difluoro-pyrrolidin-1-yl)-N4-[2-(2-methoxy-phenyl)-ethyl]-pyrimidine-2,4-diamine]	1 to 100 nM	1 to 100 nM	–	–
NC(=O)[C@H]1CCN(c2nc(N)nc3c2CCCN3)C1 [Example 78, (S)-1-(2-Amino-5,6,7,8-tetrahydro-pyrido[2,3-d]pyrimidin-4-yl)-pyrrolidine-3-carboxylic acid amide-formiate]	< 1 nM	1 to 100 nM	–	–
CNc1cc(N2CCCCC2c2cc3ccccc3o2)nc(N)n1 (stereo not drawn) [Example 81, 6-(2-Benzofuran-2-yl-piperidin-1-yl)-N4-methyl-pyrimidine-2,4-diamine]	< 1 nM	1 to 100 nM	–	–
CNc1cc(N2CCCC2Cc2ccc(Cl)cc2)nc(N)n1 (stereo not drawn) [Example 84, 6-[2-(4-Chloro-benzyl)-pyrrolidin-1-yl]-N4-methyl-pyrimidine-2,4-diamine]	< 1 nM	1 to 100 nM	–	–
CNc1cc(N2CCC[C@H]2Cc2ccccc2OC)nc(N)n1 [Example 92, 6-[(S)-2-(2-Methoxy-benzyl)-pyrrolidin-1-yl]-N4-methyl-pyrimidine-2,4-diamine]	< 1 nM	–	≥ 10 min	–
CNc1cc(N2CCCCC2Cc2ccc(OC)cc2)nc(N)n1 (stereo not drawn) [Example 95, 6-[2-(4-Methoxy-benzyl)-piperidin-1-yl]-N4-methyl-pyrimidine-2,4-diamine]	< 1 nM	–	≥ 10 min	–
CNc1cc(N2CCCC2Cc2ccccc2Cl)nc(N)n1 (stereo not drawn) [Example 98, 6-[2-(2-Chloro-benzyl)-pyrrolidin-1-yl]-N4-methyl-pyrimidine-2,4-diamine]	< 1 nM	1 to 100 nM	≥ 10 min	–
CNc1cc(N2CCCCC2Cc2ccccc2OC)nc(N)n1 (stereo not drawn) [Example 100, 6-[2-(2-Methoxy-benzyl)-piperidin-1-yl]-N4-methyl-pyrimidine-2,4-diamine]	< 1 nM	1 to 100 nM	≥ 10 min	–
CNc1cc(N2CCCCC2Cc2ccccc2Cl)nc(N)n1 (stereo not drawn) [Example 105, 6-[2-(2-Chloro-benzyl)-piperidin-1-yl]-N4-methyl-pyrimidine-2,4-diamine]	< 1 nM	1 to 100 nM	≥ 10 min	–
CNc1cc(N2CC(C(=O)NCCc3ccc(S(=O)(=O)F)cc3)C2)nc(N)n1 [Example 108, 4-(2-{[1-(2-Amino-6-methylamino-pyrimidin-4-yl)-azetidine-3-carbonyl]-amino}-ethyl)-benzenesulfonyl fluoride]	< 1 nM	–	–	≥ 10 min
CNc1cc(N2CCCC[C@@H]2Cc2ccc(OC)cc2)nc(N)n1 [Example 116, 6-[(R)-2-(4-Methoxy-benzyl)-piperidin-1-yl]-N4-methyl-pyrimidine-2,4-diamine]	< 1 nM	–	≥ 10 min	–

Further lines, with some results ahead:

IC50 [1]	Kd [2]	Compound	residence time ([2]; read-out: Residence time)	residence time [2]
< 1 nM	< 1 nM	CNc1cc(N2CCCC2Cc2cccc(Cl)c2)nc(N)n1 (stereo not drawn) [Example 85, 6-[2-(3-Chloro-benzyl)-pyrrolidin-1-yl]-N4-methyl-pyrimidine-2,4-diamine]	–	–
> 100 nM	> 100 nM	Nc1nc(NC2CC2)cc(N2C[C@H](O)CC2=O)n1 [Example 86, (R)-1-(2-Amino-6-cyclopropylamino-pyrimidin-4-yl)-4-hydroxy-pyrrolidin-2-one]	–	–
1 to 100 nM	1 to 100 nM	CCCCOC(=O)CC1CCCN1c1cc(NC2CC2)nc(N)n1 (stereo not drawn) [Example 87, [1-(2-Amino-6-cyclopropylamino-pyrimidin-4-yl)-pyrrolidin-2-yl]-acetic acid butyl ester]	–	–
> 100 nM	> 100 nM	Nc1nc(NC2CC2)cc(N2CCCC2C(=O)NCc2ccccc2Cl)n1 (stereo not drawn) [Example 88, 1-(2-Amino-6-cyclopropylamino-pyrimidin-4-yl)-pyrrolidine-2-carboxylic acid 2-chloro-benzylamide]	–	–
> 100 nM	> 100 nM	Nc1nc(NC2CC2)cc(N2CCCC2=O)n1 [Example 94, 1-(2-Amino-6-cyclopropylamino-pyrimidin-4-yl)-pyrrolidin-2-one]	–	–
1 to 100 nM	> 100 nM	Nc1nc(NC2CC2)cc(N2CCCC2CC(=O)O)n1 (stereo not drawn) [Example 97, [1-(2-Amino-6-cyclopropylamino-pyrimidin-4-yl)-pyrrolidin-2-yl]acetic acid]	–	–
< 1 nM	1 to 100 nM	CNc1cc(N2CCCC2Cc2cccc(C)c2)nc(N)n1 (stereo not drawn) [Example 112, N4-Methyl-6-[2-(3-methyl-benzyl)-pyrrolidin-1-yl]-pyrimidine-2,4-diamine]	–	–
1 to 100 nM	1 to 100 nM	C=CC(=O)Nc1ccc(CCNC(=O)C2CCN(c3cc(NC)nc(N)n3)CC2)cc1 [Example 113, 1-(2-Amino-6-methylamino-pyrimidin-4-yl)-piperidine-4-carboxylic acid [2-(4-acryloylamino-phenyl)-ethyl]-amide]	–	–
1 to 100 nM	1 to 100 nM	CNc1cc(N2C(=O)CCC2Cc2ccccc2)nc(N)n1 (stereo not drawn) [Example 114, 1-(2-Amino-6-methylamino-pyrimidin-4-yl)-5-benzyl-pyrrolidin-2-one]	–	–
1 to 100 nM	1 to 100 nM	CNc1cc(N2CC(Cc3ccccc3)CC2=O)nc(N)n1 (stereo not drawn) [Example 115, 1-(2-Amino-6-methylamino-pyrimidin-4-yl)-4-benzyl-pyrrolidin-2-one]	–	–
